Source: a melting point compilation (Tetko et al.; mined from patent text by program, amines drawn as free bases though some values may be those of a salt)

Compound | melting point
COc1cc(Cl)ccc1C(=O)Nc1ccc(-n2nc(C(F)(F)F)cc2C(F)(F)F)cc1 | 178 to 180 °C
CCOC(=O)C1=C(C)NC2=C(C(=O)OC2)C1c1cccc2ncc(-c3ccccc3)cc12 (centres undefined) | 257 to 260 °C
Cc1nc(=O)[nH]c2c(-c3ccccc3)[nH]c(C)c12 | 290 to 294 °C
Nc1ccc(N2CCC(N3CCOCC3)CC2)c(C(F)(F)F)c1 | 118 to 120 °C
COc1ccc(C(=O)C=C2CCCN2)cc1 | 134 to 135 °C
CC(=O)c1ccc(NS(=O)(=O)c2sc3ccc(F)cc3c2C)c(S(C)(=O)=O)c1 | 174 to 175 °C
C[C@H](NC(=O)OC(C)(C)C)c1nc2c(C(F)(F)F)cccc2c(=O)o1 | 174 °C
CC1(C)CC(=O)C1(Cl)CC(Br)(Br)Br (centres undefined) | 95 to 97 °C
CCOC(=O)c1ccccc1C(=O)c1ccc2c(c1)C(C)(C)C(C)C2(C)C (centres undefined) | 56 to 57 °C
CCOC(=O)c1c(C)noc1C(=O)O | 54 to 58 °C
CCOC(=O)C(=CNc1ncnn1C)C(=O)c1cc(F)c(Cl)nc1Cl | 102 to 103 °C
O=S1(=O)CCCc2[nH]c3ccccc3c2CC1 | 207 to 208 °C
CN(C)C(=O)C(C)(C)Sc1nc2ccccc2cc1-c1ccccc1 | 149 to 156 °C
CCC1CC(=O)C(C(=O)NS(=O)(=O)c2ccc(C)cc2)C(=O)C1 (centres undefined) | 86 to 87 °C
Nc1ccc(Cc2nc3ccccc3o2)cc1 | 105 to 106 °C
CCc1nc2c(C)cc(C)nc2n1Cc1ccc(C(=C(Br)C(=O)O)c2ccccc2)cc1 | 125 to 129 °C
CC(Cc1c[nH]c2ccccc12)(NC(=O)OC1C2CC3CC(C2)CC1C3)C(=O)O (centres undefined) | 210 to 215 °C
CSC(=O)C(C)(C)NC(=O)c1cc2c(n(CC3CCCCC3)c1=O)CCCCCC2 | 196 to 198 °C
O=C1CNc2ccccc2CN1 | 167 to 170 °C
Cn1cc(-c2cc3cccnc3[nH]2)c2cc(OCCCO)ccc21 | 192 to 193 °C
CCNC(=S)N1CCN(c2ccc3ccccc3n2)CC1 | 193 to 195 °C
COc1cc(-n2cnc3cc(-c4ccc(Cl)cc4)sc3c2=O)ccc1OCC1(OP(=O)(O)O)CC(F)(F)C1 | 219 °C
Nc1ncc(Br)cc1C(=O)O | 272 °C
O=C1C(CCO)Oc2cc(F)ccc2N1Cc1cccc(Cl)c1 (centres undefined) | 79 to 82 °C
CC1(O)CC2c3ccccc3CCN2C2CCCCC21 (centres undefined) | 85 to 88 °C

Compound | melting point
CN(C(=S)SC(C[N+](=O)[O-])c1ccccc1)c1ccccc1 (centres undefined) | 111 to 116 °C
C(CSc1nnc(SCCCN2CCOCC2)s1)CN1CCOCC1 | 65.5 to 66 °C
N#Cc1cc(Cc2ccccc2Cl)ccc1N | 79 to 80 °C
CC1=C(C(=O)O)CCC(C)(C)C1 | 108 to 110 °C
C[C@@H](CCC(=O)N[C@@H](Cc1ccccc1)C(=O)CSCc1ccco1)CNC(=O)COc1ccccc1 | 91 to 95 °C
CC(NC(=O)C(C)(Cc1c[nH]c2ccccc12)NCc1cc2ccccc2o1)c1ccn(C)c1 (centres undefined) | 53 to 57 °C
COc1cc(/C=[N+](\[O-])C(C)C)ccc1O | 178 to 180 °C
CC(=O)Nc1cccc(CNc2nc(Nc3cccc(NS(C)(=O)=O)c3)nc3[nH]cnc23)c1 | 159 to 162 °C
C[C@H](NC1Cc2ccccc2C1)C(=O)O | 285 °C
CCCCc1nc2c(n1Cc1ccc(-c3ccccc3S(=O)(=O)NC(=O)NCCC)cc1)C(=NO)CCS2 | 178 °C
COC(=O)CC1=C(C)/C(=C/c2ccc(SC)cc2)c2ccc(F)cc21 | 73 to 75 °C
O=c1[nH]c2ccsc2c(=O)n1CCN1CCC(=C(c2ccc(F)cc2)c2ccc(F)cc2)CC1 | 207 to 208 °C
CCOC(=O)c1cnc2c(cnn2CCC(C)C)c1O | 65 to 70 °C
CC(CCCC(O)(C(F)(F)F)C(F)(F)F)C1CCC2C3C=CC4=CC(=O)C5OC5C4(C)C3CCC12C (centres undefined) | 181 to 184 °C
CC1(CC(=O)O)CCc2ccc3ccccc3c2C1=O (centres undefined) | 80 to 83 °C
O=C(O)CCC(Cc1ccccc1Cl)(C(=O)C=Cc1ccc(Cl)cc1)c1ccccc1 (centres undefined) | 184 to 187 °C
NC(=O)C1(C2c3[nH]c4ccc(Cl)cc4c3CCN2C=O)CCC1 (centres undefined) | > 260 °C
CCOC(=O)C1=C(C)NC(C)=C([N+](=O)[O-])C1c1cccnc1 (centres undefined) | 264 °C
CCCCCc1cc(O)c2c(c1)OC(C)(C)CC2C1=CCN(Cc2ccc3ccccc3c2)CC1 (centres undefined) | 49 to 51.5 °C
Nc1cc(C(F)(F)F)cc2nc3c4ccccc4c4ccccc4c3nc12 | 194 to 195 °C
CCCc1nn(-c2ccc(C(F)(F)F)cn2)cc1CCCOc1cc(CCC(=O)O)cc(OC)c1 | 98 to 99 °C
O=C(O)Cc1ccc(C2=CCCCC2)cc1 | 118 to 120 °C
O=C(O)c1ccc2c(c1)S(=O)(=O)N=C(n1ccnc1)N2 | > 300 °C
CC(=O)c1c(C)sc(C)c1CC(N)=O | 123 to 125 °C
Cc1cccc(N(CCC(=O)O)Cc2ccc3nc(N)n(Cc4nc(C)ccc4O)c3c2)c1 | 165 °C

Compound | melting point
COC(=O)c1ccccc1NC(=O)NCC1(c2ccccc2)CCCCC1 | 91 to 94 °C
O=Cc1cn(-c2ccccc2)nc1-c1ccc([N+](=O)[O-])o1 | 208 to 209 °C
Cc1onc(NS(=O)(=O)c2ccccc2-c2ccc(-c3ncccn3)cc2CN2CCC(C)(C)C2=O)c1C | 125 to 132 °C
O=C(O)c1cn([C@@H]2C[C@@H]2F)c2cc(F)ccc2c1=O | 302 to 305 °C
O=C1c2c(Cl)cccc2-n2cnc(-c3noc(C(F)(F)F)n3)c2[C@@H]2CCCN12 | 220 to 221 °C
O=C(O)c1cccc(C(=O)O)c1S(=O)(=O)Nc1ccc(F)cc1C(F)(F)F | 250 to 254 °C
O=C(C(=NO)c1ccc(F)cc1)c1ccnc(F)c1 | 166 °C
CCOC(=O)C1(C)C(=O)Nc2cc3[nH]c(-c4ccccc4)nc3cc21 (centres undefined) | 178 to 182 °C
CC(=O)NC(NC(=O)C(F)(F)F)C(=O)NCc1ccccc1 (centres undefined) | 228 to 230 °C
O=C(NO)[C@H]1CN(S(=O)(=O)c2ccc(-c3ccon3)s2)CCN1S(=O)(=O)c1ccc(-c2ccccc2)s1 | 204 °C
O=C1c2ccccc2C(=O)N1CC(=O)N1c2ccccc2N(Cc2ccccc2)C(=O)CC1C=Cc1ccccc1 (centres undefined) | 183 to 184 °C
O=Cc1ccc2c(c1)CCC(C(=O)O)C2 (centres undefined) | 205 to 212 °C
COC(=O)c1ccc(Cc2cn(C)c3ccc(CCNC(=O)N4CCOCC4)cc23)c(OC)c1 | 160 to 161 °C
CCCOc1ccc(S(=O)(=O)N2CCNCC2)cc1-c1cc2c(=O)n(C)c(=O)n(CCC)c2[nH]1 | 237 °C
CCCCCCC(C)(C)c1ccc(C2=CCCN(C)C2)c(O)c1 | 126 to 127 °C
COc1cc(N)c(OC)c(OC)c1OC | 99 to 100 °C
CCCCCCCCCCCCCCc1ccc2c(c1)C(=O)C(=O)N2 | 87 to 89 °C
COc1ccc(C(=O)C(C(=O)Nc2ccccc2Cl)N2C(=O)c3ccccc3C2=O)cc1[N+](=O)[O-] (centres undefined) | 203 to 205 °C
CN1CCN(S(=O)(=O)c2cccc(NC(=O)c3cnn4c(C(F)(F)F)cc(-c5ccc(Cl)c(Cl)c5)nc34)c2)CC1 | 181 °C
COC(=O)COc1ccc(C(=O)CN)cc1 | 135 to 136 °C
Cc1nc2c(OCc3ccccc3Cl)nccc2n1C | 180 to 181 °C
Clc1ccc(C=Cc2nc3c(s2)NCCCC3)cc1 | 188 to 189 °C
CNc1nc(-c2cccc(C#Cc3ccccc3)c2)c2cc(OC)c(OC)cc2n1 | 102 to 104 °C
Cc1cc(C(=S)CN=[N+]=[N-])ccc1O | 124 to 129 °C
C=C(C)CC(O)(C(Nc1ccc(F)c2nc(C)ncc12)c1ccc(Cl)cc1OC)C(F)(F)F (centres undefined) | 110 °C

Compound | melting point
CC(=O)Nc1ccc(C)c2c1C(=O)CCN2CC#N | 190 to 193 °C
Cc1cccc(NC(=O)NCC(=O)N(CC(=O)N(c2ccccc2)C(C)C)c2ccccc2)c1 | 170 °C
O=C(O)c1ccc(CCCC2SCC(=O)N2CCC2(O)CCCCC2)cc1 (centres undefined) | 147 to 148 °C
COC(=O)C=Cc1cc2cc(NC(=O)c3cc4ccccc4o3)ccc2[nH]1 | 259 to 260 °C
CNc1nc(-c2cccc(-c3cccc(SC)c3)c2)c2cc(OC)c(OC)cc2n1 | 195 to 197 °C
CC(C(=O)n1c(=O)oc2ccccc21)C(O)CCCl (centres undefined) | 116 to 117 °C
C=C(C)C(=O)OCCC(=O)Oc1ccc(-c2cc(OC(=O)C(=C)C)cc(-c3ccc(OC(=O)CCOC(=O)C(=C)C)cc3)c2)cc1 | 88 °C
Cc1nc(-c2ccccc2)cc(-c2cccc([N+](=O)[O-])c2)c1NC(=O)NCCN(C)C | 159 to 161 °C
Clc1ccc2ccc(COc3ccc(CN4CCc5cccc(CCc6nnn[nH]6)c54)cc3)nc2c1 | 69 to 73 °C
CN(Cc1ccccc1)[C@H](Cc1c[nH]c2ccccc12)c1nc(-c2ccccc2)c[nH]1 | 110 to 112 °C
CCOC(=O)C1=C(N)N=C(OCC)C(C(=O)OCC)C1c1ccccc1 (centres undefined) | 119 °C
CCOC(=O)C1=C(CC)N(CCOC(=O)c2ccccc2)C(=O)NC1c1ccccc1 (centres undefined) | 111 °C
CCCCCCCCOc1ccc(C(=O)Oc2cc(Cl)c(Cl)cc2Cl)cc1 | 53 °C
COc1cccc(-c2cc3nccnc3[nH]2)c1 | 194 to 196 °C
CCOc1nc(C(F)(F)F)cc(=O)n1-c1cc(OC(C)C)c(Cl)cc1F | 101 to 103 °C
COC(=O)C(CCCc1cc(C(C)(C)C)c(O)c(C(C)(C)C)c1)S(=O)(=O)C(CCCc1cc(C(C)(C)C)c(O)c(C(C)(C)C)c1)C(=O)OC (centres undefined) | 68 to 69 °C
CCNC(=O)Nc1snc(C)c1C(=O)OCC | 150 to 151 °C
CCC(=O)Nc1ccc(-c2ccncc2)cc1 | 179 to 181 °C
O=C1CN=C(c2ccccc2F)c2ccccc2N1 | 181 to 182 °C
CS(=O)(=O)Nc1cc2occ(CO)c(=O)c2cc1Oc1ccccc1 | 165 to 166 °C
Clc1ncc(Cl)c(-c2ccc(Cl)c(Cl)c2)n1 | 125 to 126 °C
Cn1nc(-c2c(F)cccc2Cl)nc1-c1ccc(OCc2ccc(C(F)(F)F)cc2F)c(Cl)c1 | 109 to 111 °C
O=c1cc(OCc2ccccc2)c2ccc(O)cc2o1 | 234 °C
COc1ccccc1-n1cnnc1C(F)(F)F | 62 °C
